We go through 5 compounds from patent US10568840B2, “Self assembled gels for controlled delivery of encapsulated agents to cartilage” (The Brigham and Women's Hospital, Inc., priority 2016, dated 2020).

The nature of series [1]: In vitro release of L-006235 from SP and SP-DOTAP hydrogel (dialysis, HPLC). The conditions noted are these: from hydrogel in PBS at 37° C.; in 7 days. In kind it is physicochemical. How it is done:
SP-DOTAP gel was assayed for its ability to retain the encapsulated Cathepsin-K inhibitor, L-006235, loaded at 10% (w/w). In vitro release of L-006235 from SP-only hydrogel and from SP-DOTAP hydrogel was evaluated in PBS at 37° C. Drug-loaded hydrogels (200 μL, 10 mg drug/mL) further suspended in PBS (800 μl) were placed in dialysis tubing (8-10 kD molecular weight cut-off, Spectrum Labs). The dialysis bags filled with hydrogel in the suspension medium were placed in a 40 mL sink medium (PBS), and incubated at 37° C. with a shaking speed of 150 rpm. At each time point, an aliquot (1 ml) from the sink medium was removed and replenished with the same volume of fresh PBS to ensure constant sink conditions. Aliquots were lyophilized and dissolved in 250 μL methanol, followed by high performance liquid chromatography (HPLC) analysis of the drug amount.

Series [2] can be described thus: Log P of GRAS amphiphiles. The conditions noted are these: GRAS amphiphile alone. In kind it is physicochemical. The text has this:
(log P is the partition coefficient of a molecule between an aqueous and lipophilic phases, usually octanol and water; commonly used as a measure of lipophilicity of a compound.)

Turning to `CN1CCN(c2nc(-c3ccc(C(=O)NC4(C(=O)NCC#N)CCCCC4)cc3)cs2)CC1` [L-006235], the “cumulative release of L-006235” value in series [1] is “less than 10%”.

Regarding sucrose stearate [SS], the log partition coefficient (Log P) in series [2] (Table 1) was 1.416. `CCCCCCCCCCCCCCCC(=O)OC[C@H](O)[C@H]1OC(=O)C(O)=C1O` [AP, ascorbyl palmitate]: the logP in series [2] (aqueous and lipophilic phases, usually octanol and water, Table 1) turned out to be 4.62. With sucrose palmitate [SP], the “Log P” value in series [2] (Table 1) and in series [2] (Table 2) was 0.64 each time. As for triglycerol monostearate [TG18], the “Log P” value in series [2] (Table 1) and in series [2] (Table 2) was 3.899 each time.

Broadly, the Log P is the decadic logarithm of the partition coefficient of the neutral form, usually between octanol and water. Low values mean a more hydrophilic compound, high ones a more lipophilic compound. Broadly, the logP is a log measure of how a compound divides between an organic and an aqueous phase. The low end stands for a more hydrophilic compound, the high end for a more lipophilic compound.
